From patent publication US5358712A, “Radiopharmaceutical agents for the detection of Alzheimer's disease” (Regents of the University of Minnesota, priority 1993, dated 1994)

Tests used:
[1] = Blocking experiments: inhibition of radiotracer accumulation in the rat by coadministered compound; format: in vivo, rat (male Wistar); details: rat, iv, rat, iv, 60 min
Method: *Animals in group 1 received an iv injection of (+)4-[^125 l]HIPP
only. For groups 2, 3, and 4, the radiotracer was coadministered with the
hydrochlorides of (+)7 (0.53 mg/kg), (-)7 (0.53 mg/kg) and vesamicol (0.3
Four groups of male Wistar rats (n=3) were used in these experiments. All animals received an iv dose of 8-10 μCi of the radiotracer in 0.1 ml of 50% aq. ethanol. Additionally, in groups 2, 3 and 4, the radiotracer was coadministered with (+)-HBrPP.HCl(1.3 μmol/kg), (-)-HBrPP.HCl(1.3 μmol/kg) and (dl)-vesamicol hydrochloride (1.1 μmol/kg), respectively. At 60 min. post-injection, blood was collected by cardiac puncture and the animals sacrificed as described above. The data was analyzed as outlined above.
NOTE: The dose of radiotracer injected was 5-7 mCi. Group I was the
control, injected with the radiotracer only. Group II included the
simultaneous injection of "cold"(dl)3-HIPP (HCl) (0.53 mg/kg). Group III
included the simultaneous injection of (dl) vesamicol (HCl) (0.31 mg/kg).
All rats were sacrificed at one hour postinjection.
NOTE: Group I was the control, injected with the radiotracer only. Group
II included the simultaneous injection of "cold"(dl)3-HIPP (HCl) (0.53
mg/kg). Group III included the simultaneous injection of (dl) vesamicol
hydrochloride (0.31 mg/kg). The dose of radiotracer was 8-9 μCi. All
rats were sacrificed at one hour postinjection.
NOTE: Group I received (+)[^125 l]13 only. Group II received the (+)
radiotracer coinjected with 0.31 mg/kg (dl)vesamicol hydrochloride. Group
III received (-)[^125 l]13 only. Group IV received the (-) radiotrace
coinjected with 0.31 mg/kg (dl)vesamicol hydrochloride. All animals were
sacrificed at one hour postinjection. The dose of radiotracer injected pe

[2] = Tissue distribution (biodistribution) of radioiodinated compound in the rat; details: rat, iv; for tissue uptake at 1 h: 60 min; for tissue uptake at 3 h: 180 min
Method: Four groups of male Wistar rats (with four animals per group) weighing 200-350 g were used in these experiments. Each animal received, while under ether anesthesia, an intravenous injection of the radiotracer (10-20 μCi) dissolved in 0.1 ml of 50% aqueous ethanol. At 5, 30, and 60 and 180 min. post-injection, blood was collected from the anesthetized animals by cardiac puncture, and the animal was immediately sacrificed by cardiectomy. The organs and tissues of interest were harvested, transferred to preweighed tubes and counted in a Beckman gamma counter. The tubes were subsequently reweighed to give the weight of the corresponding tissues. Preweighed tubes containing ^1 -ml samples of a 1:100 dilution of the injection dose were also counted and used as reference for calculating the tissue accumulation of radioactivity. The accumulation of radiotracer was expressed as a percentage of injected dose per gram of tissue.

[3] = blood, radiotracer only (control), read-out: radioactivity in blood
[4] = brain, + (dl)-vesamicol HCl 0.3 (Table 3) or 0.31 mg/kg, read-out: radioactivity in brain
[5] = brain, radiotracer only (control), read-out: radioactivity in brain
[6] = heart, + (dl)-vesamicol HCl 0.3 (Table 3) or 0.31 mg/kg, read-out: radioactivity in heart
[7] = heart, radiotracer only (control), read-out: radioactivity in heart
[8] = kidney, + (dl)-vesamicol HCl 0.3 (Table 3) or 0.31 mg/kg, read-out: radioactivity in kidney
[9] = kidney, radiotracer only (control), read-out: radioactivity in kidney
[10] = liver, + (dl)-vesamicol HCl 0.3 (Table 3) or 0.31 mg/kg, read-out: radioactivity in liver
[11] = liver, radiotracer only (control), read-out: radioactivity in liver
[12] = lung, + (dl)-vesamicol HCl 0.3 (Table 3) or 0.31 mg/kg, read-out: radioactivity in lung
[13] = lung, radiotracer only (control), read-out: radioactivity in lung
[14] = muscle, + (dl)-vesamicol HCl 0.3 (Table 3) or 0.31 mg/kg, read-out: radioactivity in muscle
[15] = muscle, radiotracer only (control), read-out: radioactivity in muscle
[16] = spleen, + (dl)-vesamicol HCl 0.3 (Table 3) or 0.31 mg/kg, read-out: radioactivity in spleen
[17] = spleen, radiotracer only (control), read-out: radioactivity in spleen
[18] = kidney, radioactivity in kidney
[19] = muscle, radioactivity in muscle
[20] = spleen, radioactivity in spleen

For `OC(Cc1cccc([125I])c1)CN1CCC(c2ccccc2)CC1` (single isomer, unassigned; (+)) [(+)-[^125 l]12, 2-Hydroxyl-3-(3-iodophenyl)-1-[1-(4-phenylpiperidinyl)]propane], the tissue uptake at 1 h ([1]; blood, + (dl)-vesamicol HCl 0.3 (Table 3) or 0.31 mg/kg, read-out: radioactivity in blood) was 0.12 %ID/g, the tissue uptake at 1 h ([1]; blood, + cold (dl)3-HIPP HCl 0.53 mg/kg, read-out: radioactivity in blood) was 0.13 %ID/g and the tissue uptake at 1 h [1, 3] was 0.09 %ID/g. The tissue uptake at 1 h [1, 4] was 0.26 %ID/g, the tissue uptake at 1 h ([1]; brain, + cold (dl)3-HIPP HCl 0.53 mg/kg, read-out: radioactivity in brain) was 0.24 %ID/g and the tissue uptake at 1 h [1, 5] was 0.76 %ID/g. It also gave a tissue uptake at 1 h [1, 6] of 0.13 %ID/g, a tissue uptake at 1 h ([1]; heart, + cold (dl)3-HIPP HCl 0.53 mg/kg, read-out: radioactivity in heart) of 0.15 %ID/g and a tissue uptake at 1 h [1, 7] of 0.36 %ID/g. It also gave a tissue uptake at 1 h [1, 8] of 0.55 %ID/g, a tissue uptake at 1 h ([1]; kidney, + cold (dl)3-HIPP HCl 0.53 mg/kg, read-out: radioactivity in kidney) of 0.62 %ID/g and a tissue uptake at 1 h [1, 9] of 1.48 %ID/g. It also gave a tissue uptake at 1 h [1, 10] of 0.87 %ID/g, a tissue uptake at 1 h ([1]; liver, + cold (dl)3-HIPP HCl 0.53 mg/kg, read-out: radioactivity in liver) of 0.71 %ID/g and a tissue uptake at 1 h [1, 11] of 0.86 %ID/g. For the same compound, the tissue uptake at 1 h [1, 12] was 0.71 %ID/g, the tissue uptake at 1 h ([1]; lung, + cold (dl)3-HIPP HCl 0.53 mg/kg, read-out: radioactivity in lung) was 0.92 %ID/g and the tissue uptake at 1 h [1, 13] was 1.52 %ID/g. It also gave a tissue uptake at 1 h [1, 14] of 0.12 %ID/g, a tissue uptake at 1 h ([1]; muscle, + cold (dl)3-HIPP HCl 0.53 mg/kg, read-out: radioactivity in muscle) of 0.11 %ID/g and a tissue uptake at 1 h [1, 15] of 0.17 %ID/g. The tissue uptake at 1 h [1, 16] was 0.48 %ID/g, the tissue uptake at 1 h ([1]; spleen, + cold (dl)3-HIPP HCl 0.53 mg/kg, read-out: radioactivity in spleen) was 0.5 %ID/g and the tissue uptake at 1 h [1, 17] was 1.14 %ID/g. For the same compound, the tissue uptake at 5 min ([2]; blood, radioactivity in blood) was 0.08 %ID/g, the tissue uptake at 1 h ([2]; blood, radioactivity in blood) was 0.09 %ID/g and the tissue uptake at 3 h ([2]; blood, radioactivity in blood) was 0.08 %ID/g. It also gave a tissue uptake at 5 min ([2]; brain, radioactivity in brain) of 1.03 %ID/g, a tissue uptake at 1 h ([2]; brain, radioactivity in brain) of 0.82 %ID/g and a tissue uptake at 5 min ([2]; heart, radioactivity in heart) of 1.3 %ID/g. For the same compound, the tissue uptake at 1 h ([2]; heart, radioactivity in heart) was 0.38 %ID/g, the tissue uptake at 3 h ([2]; heart, radioactivity in heart) was 0.16 %ID/g and the tissue uptake at 5 min [2, 18] was 2.55 %ID/g. For the same compound, the tissue uptake at 1 h [2, 18] was 1.28 %ID/g, the tissue uptake at 3 h [2, 18] was 0.75 %ID/g and the tissue uptake at 5 min ([2]; liver, radioactivity in liver) was 1.17 %ID/g. It also gave a tissue uptake at 1 h ([2]; liver, radioactivity in liver) of 0.89 %ID/g, a tissue uptake at 3 h ([2]; liver, radioactivity in liver) of 0.51 %ID/g and a tissue uptake at 5 min ([2]; lung, radioactivity in lung) of 7.34 %ID/g. For the same compound, the tissue uptake at 1 h ([2]; lung, radioactivity in lung) was 1.42 %ID/g, the tissue uptake at 3 h ([2]; lung, radioactivity in lung) was 0.61 %ID/g and the tissue uptake at 5 min [2, 19] was 0.27 %ID/g. For the same compound, the tissue uptake at 1 h [2, 19] was 0.16 %ID/g, the tissue uptake at 3 h [2, 19] was 0.12 %ID/g and the tissue uptake at 5 min [2, 20] was 0.5 %ID/g. The tissue uptake at 1 h [2, 20] was 1.12 %ID/g and the tissue uptake at 3 h [2, 20] was 0.66 %ID/g.

`OC(CN1CCC(c2ccccc2)CC1)c1ccc([125I])cc1` (single isomer, unassigned; (+)) [(+)-[^125 l]13, 1-(4-Iodophenyl)-2-(4-phenylpiperidinyl)ethanol] showed a tissue uptake at 1 h [1, 3] of 0.05 %ID/g, a tissue uptake at 1 h [1, 4] of 0.24 %ID/g and a tissue uptake at 1 h [1, 5] of 0.87 %ID/g. For the same compound, the tissue uptake at 1 h [1, 6] was 0.08 %ID/g, the tissue uptake at 1 h [1, 7] was 0.22 %ID/g and the tissue uptake at 1 h [1, 8] was 0.41 %ID/g. For the same compound, the tissue uptake at 1 h [1, 9] was 1.87 %ID/g, the tissue uptake at 1 h [1, 10] was 2.53 %ID/g and the tissue uptake at 1 h [1, 11] was 1.85 %ID/g. For the same compound, the tissue uptake at 1 h [1, 12] was 0.42 %ID/g, the tissue uptake at 1 h [1, 13] was 1.01 %ID/g and the tissue uptake at 1 h [1, 14] was 0.06 %ID/g. For the same compound, the tissue uptake at 1 h [1, 15] was 0.14 %ID/g, the tissue uptake at 1 h [1, 16] was 0.33 %ID/g and the tissue uptake at 1 h [1, 17] was 0.88 %ID/g. For the same compound, the tissue uptake at 5 min ([2]; blood, radioactivity in blood) was 0.1 %ID/g, the tissue uptake at 1 h ([2]; blood, radioactivity in blood) was 0.03 %ID/g and the tissue uptake at 5 min ([2]; brain, radioactivity in brain) was 1.43 %ID/g. It also gave a tissue uptake at 1 h ([2]; brain, radioactivity in brain) of 1.29 %ID/g, a tissue uptake at 5 min ([2]; heart, radioactivity in heart) of 1.34 %ID/g and a tissue uptake at 1 h ([2]; heart, radioactivity in heart) of 0.25 %ID/g. For the same compound, the tissue uptake at 5 min [2, 18] was 3.12 %ID/g, the tissue uptake at 1 h [2, 18] was 1.86 %ID/g and the tissue uptake at 5 min ([2]; liver, radioactivity in liver) was 1.19 %ID/g. It also gave a tissue uptake at 1 h ([2]; liver, radioactivity in liver) of 2.18 %ID/g, a tissue uptake at 5 min ([2]; lung, radioactivity in lung) of 7.87 %ID/g and a tissue uptake at 5 min [2, 19] of 0.33 %ID/g. It also gave a tissue uptake at 1 h [2, 19] of 0.14 %ID/g, a tissue uptake at 5 min [2, 20] of 0.92 %ID/g and a tissue uptake at 1 h [2, 20] of 0.9 %ID/g.
